pIC50: −log10 of the molar value.

In the assay the test system is Human peripheral blood mononuclear cells (PBMC). Description: TNFalfa-Release. In kind it is cell-based. To be noted: inhibition of TNF-a secretion, PBMC pre-incubated 30 minutes, stimulated 18 hours with lipopolysaccharide. An outline of the steps: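 Buffy-coat PBMC at 5×105 c/ml in RPMI1640 with 2% FCS were pre-incubated 30 min with compound, then stimulated 18 h with LPS 1 mg/ml. Supernatant TNF-a measured by enzyme immunoassay; pIC50 from inhibition curves relative to LPS-stimulated and unstimulated wells.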
Take `COc1ccc(C(=O)Cc2c(Cl)cncc2Cl)c(OCc2ccc(C#N)cc2)c1OC` [Compound 148, 4-{6-[2-(3,5-Dichloro-pyridin-4-yl)-acetyl]-2,3-dimethoxy-phenoxymethyl}-benzonitrile]: the negative-log IC50 (pIC50) – broadly, the negative decadic logarithm of the IC50, by convention in mol/L – was more than 6.00.

In the case of `C=CCOc1c(OC)ccc(C(=O)Cc2c(Cl)cncc2Cl)c1OCCc1ccc(F)cc1` [Compound 269, 1-{3-Allyloxy-2-[2-(4-fluoro-phenyl)-ethoxy]-4-methoxy-phenyl}-2-(3,5-dichloro-pyridin-4-yl)-ethanone], the pIC50 was more than 6.00.

`COc1ccc(C(=O)Cc2c(Cl)cncc2Cl)c(OCC(C)C)c1OC` [Compound 141, 2-(3,5-Dichloro-pyridin-4-yl)-1-(2-isobutoxy-3,4-dimethoxy-phenyl)-ethanone] showed a pIC50 of more than 6.00.

The molecule `COc1ccc(C(=O)Cc2c(Cl)cncc2Cl)c(OCC(=O)N(C)c2ccccc2)c1OC` [Compound 206, 2-{6-[2-(3,5-Dichloro-pyridin-4-yl)-acetyl]-2,3-dimethoxy-phenoxy}-N-methyl-N-phenyl-acetamide] had a negative-log IC50 (pIC50) of more than 6.00.

`C=CCCOc1c(OC)ccc(C(=O)Cc2c(Cl)cncc2Cl)c1OCC=C` [Compound 190, 1-(2-Allyloxy-3-but-3-enyloxy-4-methoxy-phenyl)-2-(3,5-dichloro-pyridin-4-yl)-ethanone] had a negative-log IC50 (pIC50) of more than 6.00.

Regarding `COc1ccc(C(=O)Cc2c(Cl)cncc2Cl)c(OCCN2C(=O)c3ccccc3C2=O)c1OC` [Compound 185, 2-(2-{6-[2-(3,5-Dichloro-pyridin-4-yl)-acetyl]-2,3-dimethoxy-phenoxy}-ethyl)-isoindole-1,3-dione], the negative-log IC50 (pIC50) was more than 6.00.

`COc1ccc(C(=O)Cc2c(Cl)cncc2Cl)c(OCCc2ccc(C)cc2)c1OC` [Compound 123, 2-(3,5-Dichloro-pyridin-4-yl)-1-[3,4-dimethoxy-2-(2-p-tolyl-ethoxy)-phenyl]-ethanone] gave a pIC50 of more than 6.00.

`COc1ccc(C(=O)Cc2c(Cl)cncc2Cl)c(OCC(=O)NC2CCCC2)c1OC` [Compound 211, N-Cyclopentyl-2-{6-[2-(3,5-dichloro-pyridin-4-yl)-acetyl]-2,3-dimethoxy-phenoxy}-acetamide] had a pIC50 of more than 6.00.

Regarding `COc1ccc(C(=O)Cc2c(Cl)cncc2Cl)c(OCc2ccccc2OC(F)F)c1OC` [Compound 168, 2-(3,5-Dichloro-pyridin-4-yl)-1-[2-(2-difluoromethoxy-benzyloxy)-3,4-dimethoxy-phenyl]-ethanone], the negative logarithm of the IC50 (pIC50) is more than 6.00.

In turn, `COc1ccccc1CCOc1c(C(=O)Cc2c(Cl)cncc2Cl)ccc(OC)c1OC` [Compound 128, 2-(3,5-Dichloro-pyridin-4-yl)-1-{3,4-dimethoxy-2-[2-(2-methoxy-phenyl)-ethoxy]-phenyl}-ethanone] gave a pIC50 of more than 6.00.

Regarding `C=CCCCOc1c(C(=O)Cc2c(Cl)cncc2Cl)ccc(OC)c1OC` [Compound 138, 2-(3,5-Dichloro-pyridin-4-yl)-1-(3,4-dimethoxy-2-pent-4-enyloxy-phenyl)-ethanone], the pIC50 was more than 6.00.

The molecule `COc1ccc(C(=O)Cc2c(Cl)cncc2Cl)c(OCCOc2ccccc2)c1OC` [Compound 122, 2-(3,5-Dichloro-pyridin-4-yl)-1-[3,4-dimethoxy-2-(2-phenoxy-ethoxy)-phenyl]-ethanone] had a negative logarithm of the IC50 (pIC50) of more than 6.00.

For `COc1ccc(C(=O)Cc2c(Cl)cncc2Cl)c(OCC(=O)NCc2cccc(F)c2F)c1OC` [Compound 235, 2-{6-[2-(3,5-Dichloro-pyridin-4-yl)-acetyl]-2,3-dimethoxy-phenoxy}-N-(2,3-difluoro-benzyl)-acetamide], the pIC50 is more than 6.00.

In the case of `COc1ccc(C(=O)Cc2c(Cl)cncc2Cl)c(OCC(=O)NCc2cccs2)c1OC` [Compound 254, 2-{6-[2-(3,5-Dichloro-pyridin-4-yl)-acetyl]-2,3-dimethoxy-phenoxy}-N-thiophen-2-ylmethyl-acetamide], the pIC50 is more than 6.00.

Turning to `COc1ccc(C(=O)Cc2c(Cl)cncc2Cl)c(OCC(=O)NCCc2ccccc2)c1OC` [Compound 241, 2-{6-[2-(3,5-Dichloro-pyridin-4-yl)-acetyl]-2,3-dimethoxy-phenoxy}-N-phenethyl-acetamide], the pIC50 is more than 6.00.

Regarding `CCOC(=O)CCCCOc1c(C(=O)Cc2c(Cl)cncc2Cl)ccc(OC)c1OC` [Compound 182, 5-{6-[2-(3,5-Dichloro-pyridin-4-yl)-acetyl]-2,3-dimethoxy-phenoxy}-pentanoic acid ethyl ester], the pIC50 was more than 6.00.

`COC(=O)c1cccc(COc2c(C(=O)Cc3c(Cl)cncc3Cl)ccc(OC)c2OC)c1` [Compound 134, 3-{6-[2-(3,5-Dichloro-pyridin-4-yl)-acetyl]-2,3-dimethoxy-phenoxymethyl}-benzoic acid methyl ester] gave a negative logarithm of the IC50 (pIC50) of more than 6.00.

For `COc1ccc(C(=O)Cc2c(Cl)cncc2Cl)c(OCc2ccc(C)c(F)c2F)c1OC` [Compound 171, 2-(3,5-Dichloro-pyridin-4-yl)-1-(2-(2,3-difluoro-4-methyl-benzyloxy)-3,4-dimethoxy-phenyl)-ethanone], the pIC50 was more than 6.00.

`COCCOc1c(C(=O)Cc2c(Cl)cncc2Cl)ccc(OC)c1OC` [Compound 109, 2-(3,5-Dichloro-pyridin-4-yl)-1-[3,4-dimethoxy-2-(2-methoxy-ethoxy)-phenyl]-ethanone]: the pIC50 is more than 6.00.

`COc1ccc(C(=O)Cc2c(Cl)cncc2Cl)c(OCC(=O)NCc2ccccc2C)c1OC` [Compound 237, 2-{6-[2-(3,5-Dichloro-pyridin-4-yl)-acetyl]-2,3-dimethoxy-phenoxy}-N-(2-methyl-benzyl)-acetamide] had a pIC50 of more than 6.00.

The molecule `COc1ccc(C(=O)Cc2c(Cl)cncc2Cl)c(OCCO)c1OC` [Compound 155, 2-(3,5-Dichloro-pyridin-4-yl)-1-[2-(2-hydroxy-ethoxy)-3,4-dimethoxy-phenyl]-ethanone] gave a negative-log IC50 (pIC50) of more than 6.00.

`COc1ccc(C(=O)Cc2c(Cl)c[n+]([O-])cc2Cl)c(OCC(=O)NCc2ccccc2)c1OC` [Compound 270, N-Benzyl-2-{6-[2-(3,5-dichloro-1-oxy-pyridin-4-yl)-acetyl]-2,3-dimethoxy-phenoxy}-acetamide] gave a pIC50 of more than 6.00.

Turning to `CCOc1c(OC)ccc(C(=O)Cc2c(Cl)cncc2Cl)c1O` [Compound 262, 2-(3,5-Dichloro-pyridin-4-yl)-1-(3-ethoxy-2-hydroxy-4-methoxy-phenyl)-ethanone], the pIC50 was more than 6.00.

`COc1ccc(C(=O)Cc2c(Cl)cncc2Cl)c(OCc2c(F)cccc2C(F)(F)F)c1OC` [Compound 170, 2-(3,5-Dichloro-pyridin-4-yl)-1-[2-(2-fluoro-6-trifluoromethyl-benzyloxy)-3,4-dimethoxy-phenyl]-ethanone] had a pIC50 of more than 6.00.

On to `COc1ccc(C(=O)Cc2c(Cl)cncc2Cl)c(OCCc2cccnc2)c1OC` [Compound 280, 2-(3,5-Dichloro-pyridin-4-yl)-1-[3,4-dimethoxy-2-(2-pyridin-3-yl-ethoxy)-phenyl]-ethanone], for which the pIC50 is more than 6.00.

Molecule `COc1ccc(C(=O)Cc2c(Cl)cncc2Cl)c(O)c1OC` [Compound 101, 2-(3,5-Dichloro-pyridin-4-yl)-1-(2-hydroxy-3,4-dimethoxy-phenyl)-ethanone] had a negative-log IC50 (pIC50) of more than 6.00.

`CC#CCOc1c(C(=O)Cc2c(Cl)cncc2Cl)ccc(OC)c1OC` [Compound 110, 1-(2-But-2-ynyloxy-3,4-dimethoxy-phenyl)-2-(3,5-dichloro-pyridin-4-yl)-ethanone]: the pIC50 is more than 6.00.

`COc1ccc(C(=O)Cc2c(Cl)cncc2Cl)c(OCC(=O)NCCOCCO)c1OC` [Compound 258, 2-{6-[2-(3,5-Dichloro-pyridin-4-yl)-acetyl]-2,3-dimethoxy-phenoxy}-N-[2-(2-hydroxy-ethoxy)-ethyl]-acetamide] had a negative logarithm of the IC50 (pIC50) of more than 6.00.

The molecule `COc1ccc(C(=O)Cc2c(Cl)cncc2Cl)c(OCCc2ccc(Cl)cc2)c1OC` [Compound 120, 1-{2-[2-(4-Chloro-phenyl)-ethoxy]-3,4-dimethoxy-phenyl}-2-(3,5-dichloro-pyridin-4-yl)-ethanone] showed a negative logarithm of the IC50 (pIC50) of more than 6.00.

The molecule `COc1ccc(C(=O)Cc2c(Cl)cncc2Cl)c(OCCc2ccccc2F)c1OC` [Compound 130, 2-(3,5-Dichloro-pyridin-4-yl)-1-(2-[2-(2-fluoro-phenyl)-ethoxy)-3,4-dimethoxy-phenyl]-ethanone] showed a pIC50 of more than 6.00.

`COc1ccc(C(=O)Cc2c(Cl)cncc2Cl)c(OCC(=O)NCCN(C)C)c1OC` [Compound 224, 2-{6-[2-(3,5-Dichloro-pyridin-4-yl)-acetyl]-2,3-dimethoxy-phenoxy}-N-(2-dimethylamino-ethyl)-acetamide] gave a pIC50 of more than 6.00.

The molecule `COc1ccc(C(=O)Cc2c(Cl)cncc2Cl)c(OCc2cccc(C#N)c2)c1OC` [Compound 152, 3-{6-[2-(3,5-Dichloro-pyridin-4-yl)-acetyl]-2,3-dimethoxy-phenoxymethyl}-benzonitrile] had a pIC50 of more than 6.00.

Molecule `COc1ccc(C(=O)Cc2c(Cl)cncc2Cl)c(OC(C)Cc2ccccc2)c1OC` (stereo not drawn) [Compound 285, 2-(3,5-Dichloro-pyridin-4-yl)-1-[3,4-dimethoxy-2-(1-methyl-2-phenyl-ethoxy)-phenyl]-ethanone] had a pIC50 of more than 6.00.

Consider `COc1ccc(C(=O)Cc2c(Cl)cncc2Cl)c(OCC(=O)NC[C@H](O)c2ccccc2)c1OC` [Compound 252, (R)-2-{6-[2-(3,5-Dichloro-pyridin-4-yl)-acetyl]-2,3-dimethoxy-phenoxy}-N-(2-hydroxy-2-phenyl-ethyl)-acetamide], for which the negative logarithm of the IC50 (pIC50) was more than 6.00.

Consider `COc1ccc(C(=O)Cc2c(Cl)cncc2Cl)c(OCC=C(C)C)c1OC` [Compound 111, 2-(3,5-Dichloro-pyridin-4-yl)-1-[3,4-dimethoxy-2-(3-methyl-but-2-enyloxy)-phenyl]-ethanone], for which the pIC50 is more than 6.00.

With `COc1ccc(C(=O)Cc2c(Cl)cncc2Cl)c(OCc2ccc(C)cc2)c1OC` [Compound 143, 2-(3,5-Dichloro-pyridin-4-yl)-1-[3,4-dimethoxy-2-(4-methyl-benzyloxy)-phenyl]-ethanone], the pIC50 is more than 6.00.

Values taken from patent US8497380B2, “Substituted acetophenones useful as PDE4 inhibitors” (Leo Pharma A/S, priority 2006, dated 2013).
